# pIC50: −log10 of the molar value. “Also recorded” adds a separate entry of the source. Read-outs that look alike come from different tables or passages of the source.
# Columns and labels:
# [1] = target: T1, Immunoprecipitated GSK-3β from hippocampus of wild-type mice (Mus musculus, UniProt Q9WV60); assay: Luminometric GSK-3β activity assay; type: biochemical
# T1 construct: the hippocampus of two month-old wild-type mice were lysed in immunoprecipitation buffer; from tissue; host or cells: hippocampus of two-month-old wild-type mice, immunoprecipitated with anti-GSK-3β antibody (Santa Cruz Biotechnology) on protein G beads
# T1 sequence (Q9WV60 whole entry): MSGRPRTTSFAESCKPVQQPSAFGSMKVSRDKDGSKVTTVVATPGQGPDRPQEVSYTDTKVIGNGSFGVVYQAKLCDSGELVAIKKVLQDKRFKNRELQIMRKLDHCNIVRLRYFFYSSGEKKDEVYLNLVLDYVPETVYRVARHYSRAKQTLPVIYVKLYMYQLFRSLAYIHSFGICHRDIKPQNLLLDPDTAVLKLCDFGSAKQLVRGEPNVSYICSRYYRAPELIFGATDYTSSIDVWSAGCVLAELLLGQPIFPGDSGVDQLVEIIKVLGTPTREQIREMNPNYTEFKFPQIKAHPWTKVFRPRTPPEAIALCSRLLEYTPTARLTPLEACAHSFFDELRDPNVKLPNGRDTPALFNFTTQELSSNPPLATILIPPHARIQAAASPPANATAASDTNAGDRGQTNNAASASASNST
# Experimental: Immunoprecipitation. The immunoprecipitation was performed as previously described (Garrido et al, 2002). Briefly, the hippocampus of two month-old wild-type mice were lysed in immunoprecipitation buffer (25 mM HEPES pH 7.4, 125 mM NaCl, 25 mM NaF, 1 mM EDTA, 1 mM EGTA, 1% NP-40) including phosphatase inhibitors (1 mM NaVO3 and 200 nM okadaic acid) and the protease inhibitor cocktail described above. 200 μg of total proteins from lysate were precleared by using protein G-Sepharose beads (Santa Cruz Biotechnology) for 1 h at 4° C. and then were incubated with anti-GSK-3β antibody (Santa Cruz Biotechnology) and new protein G beads for 4 h at 4° C. The immunocomplexes were finally pelleted and washed three times with cold immunoprecipitation buffer.
# GSK-3β activity assay. IC50 of ANDRO was determined by a luminometric GSK-3β activity assay. […] Briefly, ANDRO was tested at different concentrations and diluted in kinase buffer containing final concentrations of: 40 mM Tris pH 7.5; 20 mM MgCl2; 0,1 mg/ml BSA. Diluted ANDRO was added to 25 μM pGS-2 peptide substrate (Millipore, Billerica, USA), immunoprecipited GSK-3β and 10 μM ATP (Cell Signaling, Boston, USA) to a total assay volume of 50 μl. The enzymatic reaction was stopped after 10 min of incubation to room temperature by adding 50 μl Kinase Glo (Promega, Madison, USA). The luminometric signal was allowed to stabilize for 10 min and the measured with a Luminometer TURNER DESIGNS model TD-2020.
# Immunoprecipitated GSK-3β from hippocampus of wild-type mice was incubated with ATP and pGS-2 peptide substrate for 5 min, then the reaction was stopped and the kinase activity was determined in a luminometer.
# GSK-3β = assay: Immunoblot of GSK-3β phosphorylation and β-catenin in Wt hippocampal slices; type: cell-based, mice
# Experimental: Immunoblotting. The hippocampus and cortex of treated or control transgenic mice were dissected on ice and immediately processed has detailed previously (Toledo & Inestrosa 2010). Briefly, hippocampal and cortical tissues were homogenized in RIPA buffer (10 mM Tris-Cl, pH 7.4, EDTA 5 mM, 1% NP-40, 1% sodium deoxycholate, and 1% SDS) supplemented with a protease inhibitor mixture and phosphatase inhibitors (25 mMNaF, […] and 30 μM Na4P207) using a Potter homogenizator and then passed sequentially through different caliber syringes. Protein samples were centrifuged at 14000 rpm at 4° C. twice for 15 min. Protein concentrations were determined using the BCA Protein Assay Kit (Pierce). Samples were resolved by SDS-PAGE followed by immunoblotting on PVDF membranes. Western blot assays were carried out as previously described (Inestrosa et al 2013; Toledo & Inestrosa 2010).
# Slice Preparation and Electrophysiology. Hippocampal slices were prepared according to standard procedures previously described (Cerpa et al 2010; VarelaNallar et al 2010). Briefly, transverse slices (350 μm) from the dorsal hippocampus were cut under cold artificial cerebrospinal fluid (ACSF, in mM: 124 NaCl, […], 10 D-glucose, 2.69 KCl, 1.25 KH2PO4 2.5 CaCl2, 1.3 MgSO4, y 2.60 NaHPO4) using a V ibratome (Leica VT 1000s, Germany) and incubated in ACSF for 1 h at room temperature. In all experiments, 10 μM picrotoxin (PTX) was added to suppress inhibitory GABAA transmission (Cuitino et al 2010). Slices were transferred to an experimental chamber (2 ml), superfused (3 ml/min, at 20-22° C.) with gassed ACSF and visualized by trans-illumination with a binocular microscope (MSZ-10, Nikon, Melville, N.Y.). […] The paired pulse facilitation index was calculated by ((R2−R1)/R1), where R1 and R2 were the peak amplitudes of the first and second fEPSP respectively. […] Evoked postsynaptic responses were analyzed off-line, using an analysis software (pClampfit, Molecular Devices), which allowed visual detection of events, computing only those events that exceeded and arbitrary threshold.
# [2] = system: Wnt/β-catenin pathway in hippocampal slices; assay: β-catenin, GSK-3β and Dvl-3 western blot in hippocampal slices of wild-type mice; type: cell-based
# Experimental: Slice preparation. […] Transverse slices (250-300 μm) from the dorsal hippocampus were cut under oxygen-saturated cold artificial cerebrospinal fluid using a Vibroslice microtome (VSL, World Precision Instruments, Inc WPI, Sarasota, Fla.). After obtained, slices were incubated in ACSF for at least than one hour at room temperature, in order to stabilize activity.
# Immunoblotting. […] Briefly, tissues were homogenized in RIPA buffer (10 mM Tris-Cl, pH 7.4, EDTA 5 mM, 1% NP-40, 1% sodium deoxycholate, and 1% SDS) supplemented with a protease inhibitor mixture (1 mM PMSF, 2 μg/mL aprotinin, 1 μg/mL pepstatin and 10 μg/mL benzamidine) and phosphatase inhibitors (25 mMNaF, 100 mM Na3VO4, 1 mM EDTA and 30 μM Na4P207) using a Potter homogenizator and then passed sequentially through different caliber syringes. […] Protein concentration was determined using the BCA Protein Assay Kit (Pierce). […] The reactions were followed by incubation with anti-mouse, anti-goat or anti-rabbit IgG peroxidase conjugated (Pierce, Rockford, Ill.) and developed using an ECL kit (Western Lightning Plus ECL, PerkinElmer).
# [3] = Side effects in treated animals; details: in vivo
# [4] = system: synaptic proteins in hippocampus and cortex of APPswe/PS-1 mice; assay: Immunoblotting of synaptic proteins in treated APPswe/PS-1 mice; type: in vivo
# [5] = Wt hippocampal slices, 10 μM ANDRO for 1 hr
compound,measurement,setting,value
"C=C1CC[C@@H]2C(C)(CO)[C@H](O)CC[C@@]2(C)C1C/C=C1/C(=O)OC[C@H]1O (stereo in doubt) [ANDRO, 3-(2-(Decahydro-6-hydroxy-5-(hydroxymethyl)-5,8a-dimethyl-2-methylenenaphthyl)ethylidene)dihydro-4-hydroxyfuran-2(3H)-one]",pIC50,"[1]; different concentrations of ATP, read-out: IC50 using different concentrations of ATP",~5.25
same,IC50 with increased substrate concentration,[1]; different concentrations of the substrate,increase in the IC50
same,pIC50,"[1]; preincubation 10 min, 10 μM ATP, 25 μM pGS-2 peptide substrate, read-out: IC50 of GSK-3β activity",5.25
same,levels of β-catenin,GSK-3β; Wt hippocampal slices incubated with ANDRO,increase in the levels of β-catenin
same,active form of GSK-3β (Tyr-216 phosphorylation),GSK-3β; [5],decrease of Tyr-216 phosphorylation; also recorded: reduction of the active form
same,inactive form of GSK-3β (Ser-9 phosphorylation),GSK-3β; [5],increment of Ser-9 phosphorylation; also recorded: increase in the levels of the inactive form
same,time at which total levels of β-catenin increased,"[2]; 5 μM ANDRO, Wnt3a conditioned medium or 10 nM 6-BIO, up to 1 h",15 min
same,rate of increase of GSK3β Ser-9 and decrease of Tyr-216 phosphorylation,[2]; compared to Wnt-3a treatment,faster
same,mobility shift (phosphorylation) of Dvl-3,"[2]; hippocampal slices, 1 h",does not induce a mobility shift of Dvl-3
same,side effects in animals,[3],seems not to cause side effects in animals
same,PSD-95 and GluA2 levels,[4]; mature (12-month-old) Tg mice,increase of PSD-95 and GluA2 levels
same,total levels of pre-synaptic proteins SYP and VAMP,[4]; young APPswe/PS-1 mice,unaltered
same,"levels of post-synaptic proteins (Shank, GluN2B, GluA2, PSD-95)","[4]; young APPswe/PS-1 mice, hippocampus and cortex",significantly recovers the post-synaptic proteins

# From patent US20220409573A1, “Hippocampus Regeneration And Memory Recovery” (INNOBIOSCIENCE, LLC, priority 2021, published 2022)
